# Assay results reported in patent US20250163032A1, “NOVEL MOLECULES AS INHIBITORS OF DNA DAMAGE REPAIR PATHWAY” (VRise Therapeutics, Inc., priority 2023, published 2025).
# Legend:
# [1] = Metabolic stability, human liver microsomes; format: in vitro ADME; conditions: pH 7.4, 1 μM test item, 1 mM NADPH, 60 minutes
# Protocol: (§1) Test-8: Metabolic Stability
# (§2) Metabolic stability studies were conducted using mouse, rat, and human liver microsomes. The protocol for the studies with mouse and human liver microsomes (Gibco-Thermo) is provided below.
# (§3) In brief, 0.25 mg protein was preincubated in phosphate buffer (pH˜7.4) for 5 min at 37° C. and then added with 1 μM test item followed by addition of 1 mM NADPH (cof actor) and incubated further over a period 60 minutes in duplicate. The reaction mixture was terminated with acetonitrile containing an internal standard and centrifuged further to analyse the test item remaining in the supernatant by LC-MS/MS at different intervals. The percent parent compound remaining was calculated in comparison with similar samples terminated at 0 minutes.
# [2] = tested on: MD-MBA-436; assay: Cell viability assay (CTG assay); format: cell-based, human; conditions: 7th day; for inhibition at 10 µM / IC50: Homo sapiens
# Protocol: Test 5: Cell Viability Assay (CTG Assay):
# Growth inhibition assays was carried out using […] supplemented media. Cells were seeded at a desired concentration of 1000-6,000 cells/well in a well plate with desired number of wells. Test compounds at a desired concentration range were added after 24 hours. Growth was assessed using the Cell Titer-Glo (CTG, Cell Signaling) for measuring reduction at 7th day after the addition of test compound chemiluminescence values were read by a plate reader. Data was be analysed and percent inhibition and/or IC50 for each test compound is calculated accordingly.
# [3] = biological target: USP1/UAF1 (Homo sapiens, UniProt O94782); assay: USP1/UAF 1 assay (ubiquitin-rhodamine110 fluorometric deubiquitinase assay); format: biochemical; conditions: for inhibition at 1 µM: read-out: Biochemical assay % inhibition @1 μM; for IC50: 1 nM USP1/UAF1, 150 nM Ub-Rho, read-out: Biochemical assay IC50; for inhibition at 10 µM: read-out: Biochemical assay % inhibition @10 μM
# Protocol: Test-1: USP1/UAF 1 Assay:
# Deubiquitinase activity of USP1/UAF1 was monitored in a fluorometric assay using ubiquitin-rhodamine110 as substrate. Briefly, enzymatic reactions were conducted in an assay buffer composed of 50 mM HEPES, pH 7.8, 0.5 mM EDTA, 100 mM NaCl, 1 mM TCEP, 0.1 mg/mL BSA, and 0.01% Tween-20 that contained 1 nM USP1/UAF1. Compounds were tested at desired concentrations. The plates were incubated for 15 min to attain equilibrium, and then the enzymatic reaction was initiated by dispensing 150 nM Ub-Rho solution. Fluorescence measurement was performed in a high throughput CCD imager, where kinetic measurements of rhodamine fluorescence were acquired using a 480 nm excitation/540 nm emission filter set. The change in fluorescence intensity over a 5-minute reaction period (typically associated with less than 10% substrate conversion) was normalized against no-inhibitor and no-enzyme controls and the resulting percent inhibition data were fitted to a sigmoidal dose response using a four-parameter Hill equation. Data was be analysed and percent inhibition and/or IC50 for each test compound is calculated accordingly.
# [4] = Metabolic stability, mouse liver microsomes; format: in vitro ADME; conditions: pH 7.4, 1 μM test item, 1 mM NADPH, 60 minutes
# Protocol: as §1, §2, §3
# [5] = tested on: NCI-H1792; assay: Cell viability assay (MTT assay), NCI-H1792; format: cell-based; conditions: Homo sapiens, tested at 10 uM, 168 hours (Test-3)
# Protocol: Test-3: Cell Viability Assay (MTT Assay):
# Cell viability assay was carried out using 10% FBS supplemented media. Cells were seeded at desired density in 96 well plate and incubated in a humidified CO2 incubator. After 24 hours of plating, test compounds at desired concentration range were added to the plates and incubated in the CO2 incubator for 168 hours. Post 168 hrs treatment, 12.5 μL of MTT was added to all wells including DMSO control. MTT treated plates were incubated further for 3 hours and MTT crystals were dissolved using 125 μL of DMSO. Absorbance was read on a BIO-RAD iMark Microplate plate reader at a wavelength of 570 nm. Data was analysed and percent inhibition (IC50) due to the test compound compared to the control was calculated using GraphPad Prism.
# USP1/UAF1, sequence (O94782 whole entry): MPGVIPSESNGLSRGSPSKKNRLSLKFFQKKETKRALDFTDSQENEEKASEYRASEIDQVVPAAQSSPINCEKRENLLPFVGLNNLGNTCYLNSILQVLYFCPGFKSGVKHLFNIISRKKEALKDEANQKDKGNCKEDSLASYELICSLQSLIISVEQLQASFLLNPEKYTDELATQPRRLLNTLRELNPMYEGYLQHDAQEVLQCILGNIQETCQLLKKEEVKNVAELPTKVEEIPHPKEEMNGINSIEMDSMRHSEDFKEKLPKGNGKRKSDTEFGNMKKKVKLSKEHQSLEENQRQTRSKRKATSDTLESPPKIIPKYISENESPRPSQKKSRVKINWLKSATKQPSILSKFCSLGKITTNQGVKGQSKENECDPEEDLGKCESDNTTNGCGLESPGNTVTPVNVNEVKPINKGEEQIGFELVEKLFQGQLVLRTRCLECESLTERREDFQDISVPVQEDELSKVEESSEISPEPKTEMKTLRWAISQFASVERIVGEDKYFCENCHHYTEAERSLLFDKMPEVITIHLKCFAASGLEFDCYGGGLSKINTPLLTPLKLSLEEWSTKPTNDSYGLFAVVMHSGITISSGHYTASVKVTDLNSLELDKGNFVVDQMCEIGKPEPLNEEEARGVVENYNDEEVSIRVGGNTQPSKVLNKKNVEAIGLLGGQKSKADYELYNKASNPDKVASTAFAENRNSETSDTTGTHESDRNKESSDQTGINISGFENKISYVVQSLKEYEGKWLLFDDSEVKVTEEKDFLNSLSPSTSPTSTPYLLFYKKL
# USP1/UAF1, sequence (Q8TAF3 whole entry partner): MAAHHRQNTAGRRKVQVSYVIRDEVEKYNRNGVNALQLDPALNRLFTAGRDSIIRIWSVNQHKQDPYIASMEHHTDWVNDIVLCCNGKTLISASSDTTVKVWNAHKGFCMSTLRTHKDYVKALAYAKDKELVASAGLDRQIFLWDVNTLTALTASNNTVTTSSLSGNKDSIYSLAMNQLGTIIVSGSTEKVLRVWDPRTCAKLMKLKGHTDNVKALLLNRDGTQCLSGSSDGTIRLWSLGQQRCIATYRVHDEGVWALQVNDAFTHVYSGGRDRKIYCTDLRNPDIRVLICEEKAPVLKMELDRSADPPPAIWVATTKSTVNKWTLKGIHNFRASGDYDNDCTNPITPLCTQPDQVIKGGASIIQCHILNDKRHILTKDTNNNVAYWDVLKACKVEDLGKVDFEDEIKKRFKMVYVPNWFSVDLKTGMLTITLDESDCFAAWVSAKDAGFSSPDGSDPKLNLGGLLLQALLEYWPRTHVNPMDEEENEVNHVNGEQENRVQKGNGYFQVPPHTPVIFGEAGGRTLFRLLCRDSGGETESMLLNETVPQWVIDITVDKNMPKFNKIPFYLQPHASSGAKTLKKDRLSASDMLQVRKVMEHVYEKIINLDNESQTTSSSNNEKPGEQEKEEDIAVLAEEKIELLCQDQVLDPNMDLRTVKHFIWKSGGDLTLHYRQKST
half-life at 1 μM [1],half-life at 1 μM [4],IC50 [3],SMILES,also measured
9 min,40.2 min,,"COc1ncnc(C2CC2)c1-c1nc2c(c(N(Cc3ccc(-c4nc(C(F)(F)F)cn4C)cc3)C(N)=O)n1)CCC2 [Example 12, 1-(2-(4-cyclopropyl-6-methoxypyrimidin-5-yl)-6,7-dihydro-5H-cyclopenta[d]pyrimidin-4-yl)-1-(4-(1-methyl-4-(trifluoromethyl)-1H-imidazol-2-yl)benzyl)urea]",inhibition at 10 µM ([2]; @10 μM): 50 to 75%; inhibition at 1 µM [3]: > 75%
,,,"COc1ncccc1-c1nc(NCc2ccc(-c3nc(C(F)(F)F)cn3C)cc2)c2ncn(C3CCCCO3)c2n1 (stereo not drawn) [Example 31, 2-(2-methoxypyridin-3-yl)-N-(4-(1-methyl-4-(trifluoromethyl)-1H-imidazol-2-yl)benzyl)-9-(tetrahydro-2H-pyran-2-yl)-9H-purin-6-amine]",inhibition at 10 µM [5]: 25 to 50%
14 min,14.4 min,< 50 nM,"CC(C)c1ccccc1-c1nc2c(c(NCc3ccc(-c4nc(C(F)(F)F)cn4C)cc3)n1)CCC2 [Example 3, 2-(2-isopropylphenyl)-N-(4-(1-methyl-4-(trifluoromethyl)-1H-imidazol-2-yl)benzyl)-6,7-dihydro-5H-cyclopenta[d]pyrimidin-4-amine]",IC50 [2]: < 50 nM
52.7 min,,100 to 1000 nM,"COc1ncnc(C2CC2)c1-c1nc2c(c(NCc3ccc(-c4nc(C(F)(F)F)cn4C)cc3)c1C#N)CCC2 [Example 21, 2-(4-cyclopropyl-6-methoxypyrimidin-5-yl)-4-((4-(1-methyl-4-(trifluoromethyl)-1H-imidazol-2-yl)benzyl)amino)-6,7-dihydro-5H-cyclopenta[b]pyridine-3-carbonitriles]",inhibition at 10 µM ([2]; @10 μM): 50 to 75%
20.4 min,,100 to 1000 nM,"COc1ncnc(C2CC2)c1-c1nc(NCc2ccc(-c3nc(C(F)(F)F)cn3C)cc2)c2c(c1C#N)CCC2 [Example 2, 3-(4-cyclopropyl-6-methoxypyrimidin-5-yl)-1-((4-(1-methyl-4-(trifluoromethyl)-1H-imidazol-2-yl)benzyl)amino)-6,7-dihydro-5H-cyclopenta[c]pyridine-4-carbonitrile]",inhibition at 10 µM ([2]; @10 μM): 50 to 75%
227 min,22.6 min,,"COc1ncnc(C2CC2)c1-c1nc2c(c(OCc3ccc(-c4nc(C(F)(F)F)cn4C)cc3)n1)CCC2 [Example 24, 2-(4-cyclopropyl-6-methoxypyrimidin-5-yl)-4-((4-(1-methyl-4-(trifluoromethyl)-1H-imidazol-2-yl)benzyl)oxy)-6,7-dihydro-5H-cyclopenta[d]pyrimidine]",inhibition at 10 µM ([2]; @10 μM): 75 to 100%
,45.5 min,< 50 nM,"CC(C)n1cc(C(F)(F)F)nc1-c1ccc(CNc2nc(-c3c(OC(F)F)ncnc3C3CC3)nc3c2CCC3)cc1 [Example 11, 2-(4-cyclopropyl-6-(difluoromethoxy)pyrimidin-5-yl)-N-(4-(1-isopropyl-4-(trifluoromethyl)-1H-imidazol-2-yl)benzyl)-6,7-dihydro-5H-cyclopenta[d]pyrimidin-4-amine]",MD-MBA-436 % inhibition@10 μM ([2]; @10 μM): A#
,,,"COc1ccncc1-c1nc(NCc2ccc(-c3nc(C(F)(F)F)cn3C)cc2)c2ncn(C3CCCCO3)c2n1 (stereo not drawn) [Example 33, 2-(4-methoxypyridin-3-yl)-N-(4-(1-methyl-4-(trifluoromethyl)-1H-imidazol-2-yl)benzyl)-9-(tetrahydro-2H-pyran-2-yl)-9H-purin-6-amine]",inhibition at 10 µM [5]: 50 to 75%
,122 min,,"COc1cccc(F)c1-c1nc(OCc2ccc(-c3nc(C(F)(F)F)cn3C)cc2)c2ncn(C3CCCCO3)c2n1 (stereo not drawn) [Example 27, 2-(2-fluoro-6-methoxyphenyl)-6-((4-(1-methyl-4-(trifluoromethyl)-1H-imidazol-2-yl)benzyl)oxy)-9-(tetrahydro-2H-pyran-2-yl)-9H-purine]",
≥ 700 min,≥ 230 min,50 to 100 nM,"COc1ncnc(C2CC2)c1-c1nc(NCc2ccc(-c3nc(C(F)(F)F)cn3C)cc2)c2[nH]cnc2n1 [Example 16, 2-(4-cyclopropyl-6-methoxypyrimidin-5-yl)-N-(4-(1-methyl-4-(trifluoromethyl)-1H-imidazol-2-yl)benzyl)-7H-purin-6-amine]",inhibition at 10 µM ([2]; @10 μM): 50 to 75%
7.13 min,7.71 min,50 to 100 nM,"CC(C)c1ccccc1-c1nc(NCc2ccc(-c3nc(C(F)(F)F)cn3C)cc2)c2c(c1C#N)CCC2 [Example 4, 3-(2-isopropylphenyl)-1-((4-(1-methyl-4-(trifluoromethyl)-1H-imidazol-2-yl)benzyl)amino)-6,7-dihydro-5H-cyclopenta[c]pyridine-4-carbonitrile]",IC50 [2]: ≥ 1000 nM
10.5 min,,< 50 nM,"CC(C)c1ccccc1-c1nc2c(c(NCc3ccc(-c4nc(C(F)(F)F)cn4C(C)C)cc3)n1)CCC2 [Example 9, N-(4-(1-isopropyl-4-(trifluoromethyl)-1H-imidazol-2-yl)benzyl)-2-(2-isopropylphenyl)-6,7-dihydro-5H-cyclopenta[d]pyrimidin-4-amine]",
,10.1 min,,"COc1ncnc(C2CC2)c1-c1nc(NCc2ccc(-c3cccnc3)cc2)c2[nH]cnc2n1 [Example 76, 2-(4-cyclopropyl-6-methoxypyrimidin-5-yl)-N-(4-(pyridin-3-yl)benzyl)-7H-purin-6-amine]",inhibition at 10 µM [5]: 25 to 50%
134 min,47 min,< 50 nM,"COc1ncnc(C2CC2)c1-c1nc2c(c(NCc3ccc(-c4nc(C(F)(F)F)cn4C(C)C)cc3)n1)CCC2 [Example 10, 2-(4-cyclopropyl-6-methoxypyrimidin-5-yl)-N-(4-(1-isopropyl-4-(trifluoromethyl)-1H-imidazol-2-yl)benzyl)-6,7-dihydro-5H-cyclopenta[d]pyrimidin-4-amine]",IC50 [2]: < 50 nM
,,,"COc1ncccc1-c1nc(NCc2ccc(-c3nc(C(F)(F)F)cn3C)cc2)c2[nH]cnc2n1 [Example 32, 2-(2-methoxypyridin-3-yl)-N-(4-(1-methyl-4-(trifluoromethyl)-1H-imidazol-2-yl)benzyl)-7H-purin-6-amine]",inhibition at 10 µM [3]: > 75%; inhibition at 10 µM [5]: 50 to 75%
683 min,284 min,,"COc1ncnc(C2CC2)c1-c1nc(OCc2ccc(-c3nc(C(F)(F)F)cn3C)cc2)c2[nH]cnc2n1 [Example 26, 2-(4-cyclopropyl-6-methoxypyrimidin-5-yl)-6-((4-(1-methyl-4-(trifluoromethyl)-1H-imidazol-2-yl)benzyl)oxy)-7H-purine]",inhibition at 10 µM [3]: > 75%
,,,"COc1ncnc(C2CC2)c1-c1nc(NCc2ccc(-c3ccc(F)cn3)cc2)c2[nH]cnc2n1 [Example 77, 2-(4-cyclopropyl-6-methoxypyrimidin-5-yl)-N-(4-(5-fluoropyridin-2-yl)benzyl)-7H-purin-6-amine]",inhibition at 10 µM [5]: 50 to 75%
3.21 min,,,"CC(C)c1ccccc1-c1nc2c(c(N(Cc3ccc(-c4nc(C(F)(F)F)cn4C(C)C)cc3)C(=O)N(C)C)n1)CCC2 [Example 14, 1-(4-(1-isopropyl-4-(trifluoromethyl)-1H-imidazol-2-yl)benzyl)-1-(2-(2-isopropylphenyl)-6,7-dihydro-5H-cyclopenta[d]pyrimidin-4-yl)-3,3-dimethylurea]",inhibition at 1 µM [3]: 25 to 50%
30.3 min,7.58 min,,"Cc1cnc(-c2ccccc2C(C)C)nc1NCc1ccc(-n2ccnn2)cc1 [ML323, reference compound]",
,9.76 min,,"CC(C)c1ccccc1-c1nc2c(c(OCc3ccc(-c4nc(C(F)(F)F)cn4C(C)C)cc3)n1)CCC2 [Example 13, 4-((4-(1-isopropyl-4-(trifluoromethyl)-1H-imidazol-2-yl)benzyl)oxy)-2-(2-isopropylphenyl)-6,7-dihydro-5H-cyclopenta[d]pyrimidine]",inhibition at 1 µM [3]: 25 to 50%
